Measurements reported in patent US20250275950A1, “RIFAXIMIN AND N-ACETYL CYSTEINE FORMULATIONS” (Cedars-Sinai Medical Center, priority 2022, published 2025).
In brackets after ≈: the same amount, converted by molar mass.

System: E. Coli and Klebsiella
Assay: In vitro dilution growth/cidal experiments
Assay type: cell-based
Procedure: In vitro dilution growth/cidal experiments were conducted on E. Coli and Klebsiella to determine doses of rifaximin and NAC, including lowest doses of rifaximin and lowest doses of NAC.

MIC (Escherichia coli, with NAC concentration of 0.125 mg/mL, E. Coli and Klebsiella, organism of the value not specified, read-out: minimal inhibitory concentration (MIC) for rifaximin) [µg/mL]	SMILES	effect of NAC on effectiveness of rifaximin in killing E. coli and Klebsiella
–	CC(=O)N[C@@H](CS)C(=O)O [NAC, N-acetylcysteine]	improves the effectiveness of rifaximin
4 (≈ 5.09 µM)	CO[C@H]1/C=C/O[C@@]2(C)Oc3c(C)c(O)c4c(O)c(c5c(nc6cc(C)ccn65)c4c3C2=O)NC(=O)/C(C)=C\C=C\[C@H](C)[C@H](O)[C@@H](C)[C@@H](O)[C@@H](C)[C@H](OC(C)=O)[C@@H]1C [rifaximin]	–
